Assay [1] addresses T1, human GLP-1 receptor (hGLP-1R) (Homo sapiens, UniProt P43220).
T1 construct: expressed in transfected cells; crude membranes
Kind of assay: [125I]-GLP-1 binding, SPA with membranes of HEK293 cells expressing hGLP-1R.

The target in the next assay is T2, hGIPR (Homo sapiens, UniProt P48546).
T2 construct: expressed in transfected cells
T2 sequence (P48546 22-466): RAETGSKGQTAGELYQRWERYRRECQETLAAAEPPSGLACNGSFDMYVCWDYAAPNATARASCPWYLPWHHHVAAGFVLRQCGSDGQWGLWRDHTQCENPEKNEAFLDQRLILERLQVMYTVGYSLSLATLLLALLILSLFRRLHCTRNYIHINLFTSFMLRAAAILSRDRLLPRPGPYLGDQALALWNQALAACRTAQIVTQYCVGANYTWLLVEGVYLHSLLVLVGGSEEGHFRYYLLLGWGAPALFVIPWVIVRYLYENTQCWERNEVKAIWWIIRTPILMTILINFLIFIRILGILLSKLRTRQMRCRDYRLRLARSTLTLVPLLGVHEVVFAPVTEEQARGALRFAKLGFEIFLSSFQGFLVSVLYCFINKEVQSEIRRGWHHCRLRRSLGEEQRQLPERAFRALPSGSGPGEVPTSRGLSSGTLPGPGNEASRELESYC
Kind of assay: Functional cAMP formation (HTRF) in HEK-293 clonal cells expressing hGIPR, 0.1% bovine casein, without or with 1.0% human serum albumin. The note with it: for Emax: percent of maximal response to GIP(1-42)NH2; for EC50: cAMP. In kind it is cell-based. The method in brief: (§1)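 Cells were stimulated with peptide for 30 min at 37° C, then lysed in buffer carrying cAMP-d2 and anti-cAMP Eu3+-cryptate for a competitive HTRF read after at least 60 min at room temperature. The 665/620 nm ratio was converted to nM cAMP against a standard curve.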
For orientation: cAMP levels reflect the balance of adenylyl cyclase and phosphodiesterase activity.

In a further assay the target is hGLP-1R (Homo sapiens, UniProt P43220). As to the kind of experiment: Functional cAMP formation (HTRF) in HEK-293 clonal cells expressing hGLP-1R, 0.1% bovine casein, without or with 1.0% human serum albumin. In kind it is cell-based. Set-up: expressed in transfected cells. The note with it: for Emax: percent of maximal response to GLP-1(7-36)NH2; for EC50: cAMP. The method in brief:
as §1

Assay [2] concerns the target T3, human GIP receptor (hGIPR) (Homo sapiens, UniProt P48546).
T3 construct: expressed in transfected cells; crude membranes
T3 sequence (P48546 22-466): T2 sequence (P48546 22-466)
As to the kind of experiment: [125I]-GIP binding, SPA with membranes of CHO cells expressing hGIPR.

A further assay deals with T4, hGCGR (Homo sapiens, UniProt P47871).
T4 construct: expressed in transfected cells
Kind of assay: Functional cAMP formation (HTRF) in HEK-293 clonal cells expressing hGCGR, 0.1% bovine casein, without or with 1.0% human serum albumin. It is filed as cell-based. Particulars: cAMP, 37° C. The method, boiled down:
as §1

Setting [3] is: human GLP-1R, geometric mean (SEM, n), read-out: Binding Affinity Ki, nM (SEM, n) hGLP-1R.
The mark [4] stands for this setting: HEK293, cAMP, 37° C., 0.1% bovine casein and 1.0% human serum albumin, read-out: hGIPR Emax, % ± SEM.
Setting [5] is: 37° C., 0.1% bovine casein (no human serum albumin), geometric mean, read-out: hGIPR EC50, nM (SEM, n).
The mark [6] stands for this setting: 37° C., 0.1% bovine casein (no human serum albumin), geometric mean, read-out: hGLP-1R EC50, nM (SEM, n).
The mark [7] stands for this setting: human GIPR, geometric mean (SEM, n), read-out: Binding Affinity Ki, nM (SEM, n) hGIPR.
The mark [8] stands for this setting: 0.1% bovine casein (no human serum albumin), geometric mean, read-out: hGCGR EC50, nM (SEM, n).
[9] abbreviates: 0.1% bovine casein and 1.0% human serum albumin, geometric mean (SEM, n), read-out: hGCGR EC50, nM (SEM, n).
Setting [10] is: HEK293, cAMP, 37° C., 0.1% bovine casein, arithmetic mean, read-out: hGLP-1R Emax, % ± SEM.

Structures are written as SMILES. Like-named read-outs stand apart in the source and are kept apart here.

T1 sequence (P43220 24-463): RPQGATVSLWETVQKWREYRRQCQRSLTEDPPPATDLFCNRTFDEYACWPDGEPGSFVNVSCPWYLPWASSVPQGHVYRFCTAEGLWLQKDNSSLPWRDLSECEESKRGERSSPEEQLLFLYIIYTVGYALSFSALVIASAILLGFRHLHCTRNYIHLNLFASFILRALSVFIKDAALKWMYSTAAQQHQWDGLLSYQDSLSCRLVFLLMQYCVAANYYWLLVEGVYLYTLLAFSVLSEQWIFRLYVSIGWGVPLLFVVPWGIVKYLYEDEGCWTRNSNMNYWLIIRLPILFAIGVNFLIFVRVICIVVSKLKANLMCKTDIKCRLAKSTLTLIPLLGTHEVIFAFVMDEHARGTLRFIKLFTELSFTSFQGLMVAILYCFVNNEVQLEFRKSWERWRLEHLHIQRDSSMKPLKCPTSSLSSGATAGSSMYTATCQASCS
Chain of hGLP-1R (P43220 24-463): as above
T4 sequence (P47871 26-477): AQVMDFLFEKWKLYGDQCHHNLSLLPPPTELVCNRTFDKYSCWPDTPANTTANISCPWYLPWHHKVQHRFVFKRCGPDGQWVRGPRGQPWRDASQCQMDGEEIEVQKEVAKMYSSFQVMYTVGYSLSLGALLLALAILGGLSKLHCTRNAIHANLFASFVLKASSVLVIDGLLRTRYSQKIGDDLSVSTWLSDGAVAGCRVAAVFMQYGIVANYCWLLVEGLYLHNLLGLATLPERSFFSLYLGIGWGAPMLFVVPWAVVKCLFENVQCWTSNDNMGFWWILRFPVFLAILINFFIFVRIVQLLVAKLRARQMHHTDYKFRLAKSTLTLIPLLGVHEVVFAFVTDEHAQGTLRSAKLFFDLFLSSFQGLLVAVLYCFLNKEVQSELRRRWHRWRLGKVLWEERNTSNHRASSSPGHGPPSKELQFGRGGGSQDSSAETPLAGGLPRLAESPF

The term Ki denotes a dissociation constant, usually derived from enzyme kinetics or from competition with a known ligand. The Emax is the maximal effect, on the per cent scale that the assay sets. The EC50 is the concentration needed to bring the measured effect to its halfway point. Turning to `CC[C@H](C)[C@H](NC(=O)[C@H](CC(C)C)NC(=O)[C@](C)(Cc1ccc(O)cc1)NC(=O)[C@H](CCCCNC(=O)COCCOCCNC(=O)COCCOCCNC(=O)COCCOCCNC(=O)CC[C@H](NC(=O)CCCCCCCCCOc1ccc(C(=O)O)cc1)C(=O)O)NC(=O)[C@@H](NC(=O)[C@H](Cc1ccccc1)NC(=O)[C@H](CCCN)NC(=O)C(C)(C)NC(=O)[C@H](CCC(N)=O)NC(=O)[C@H](C)NC(=O)[C@H](CCC(N)=O)NC(=O)[C@H](CCCN)NC(=O)[C@H](CC(=O)O)NC(=O)[C@H](CC(C)C)NC(=O)[C@](C)(CC(C)C)NC(=O)[C@@H](NC(=O)C(C)(C)NC(=O)[C@H](Cc1ccncc1)NC(=O)[C@H](CC(=O)O)NC(=O)[C@H](CO)NC(=O)[C@@H](NC(=O)[C@](C)(Cc1ccccc1F)NC(=O)[C@@H](NC(=O)CNC(=O)[C@H](CCC(=O)O)NC(=O)C(C)(C)NC(=O)[C@@H](N)Cc1ccc(O)cc1)[C@@H](C)O)[C@@H](C)O)[C@@H](C)CC)[C@@H](C)CC)C(=O)N[C@@H](CCCCNC(=O)COCCOCCNC(=O)COCCOCCNC(=O)COCCOCCNC(=O)CC[C@H](NC(=O)CCCCCCCCCOc1ccc(C(=O)O)cc1)C(=O)O)C(=O)NCC(=O)NCC(=O)N1CCC[C@H]1C(=O)N[C@@H](CO)C(=O)N[C@@H](CO)C(=O)NCC(=O)N[C@@H](C)C(=O)N1CCC[C@H]1C(=O)N1CCC[C@H]1C(=O)N1CCC[C@H]1C(=O)N[C@@H](CO)C(N)=O` [Example 477], the figures for the Ki in assay [1] and in assay [2] were 0.143 nM and 0.0279 nM, respectively. Also, the Emax at hGIPR (HEK293, read-out: hGIPR Emax, % ± SEM, cAMP, 37° C., 0.1% bovine casein and 1.0% human serum albumin) came out at 88.1%; on hGLP-1R (HEK293, read-out: hGLP-1R Emax, % ± SEM, cAMP, 37° C., 0.1% bovine casein and 1.0% human serum albumin), 110%; at hGLP-1R (HEK293, read-out: hGLP-1R Emax, % ± SEM, cAMP, 37° C., 0.1% bovine casein, arithmetic mean), 110%. In addition, the EC50 at hGIPR (hGIPR EC50, nM (SEM, n), 37° C., 0.1% bovine casein (no human serum albumin), geometric mean) is 0.00861 nM; on hGIPR (hGIPR EC50, nM (SEM, n), 37° C., 0.1% bovine casein and 1.0% human serum albumin, geometric mean (SEM, n)), 0.163 nM; on hGLP-1R (hGLP-1R EC50, nM (SEM, n), 37° C., 0.1% bovine casein (no human serum albumin), geometric mean) it was 0.143 nM; on hGCGR (hGCGR EC50, nM (SEM, n), 0.1% bovine casein (no human serum albumin), geometric mean) it was more than 9950 nM; at hGCGR (hGCGR EC50, nM (SEM, n), 0.1% bovine casein and 1.0% human serum albumin, geometric mean (SEM, n)), more than 9950 nM.

`CC[C@H](C)[C@H](NC(=O)[C@H](CC(C)C)NC(=O)[C@](C)(Cc1ccc(O)cc1)NC(=O)[C@H](CCCCNC(=O)COCCOCCNC(=O)CC[C@H](NC(=O)CC[C@H](NC(=O)CC[C@H](NC(=O)CCCCCCCCCCCCC(=O)O)C(=O)O)C(=O)O)C(=O)O)NC(=O)[C@@H](NC(=O)[C@H](Cc1ccccc1)NC(=O)[C@H](CCCN)NC(=O)C(C)(C)NC(=O)[C@H](CCC(N)=O)NC(=O)[C@H](C)NC(=O)[C@H](CCC(N)=O)NC(=O)[C@H](CCCN)NC(=O)[C@H](CC(=O)O)NC(=O)[C@H](CC(C)C)NC(=O)[C@](C)(CC(C)C)NC(=O)[C@@H](NC(=O)C(C)(C)NC(=O)[C@H](Cc1ccncc1)NC(=O)[C@H](CC(=O)O)NC(=O)[C@H](CO)NC(=O)[C@@H](NC(=O)[C@](C)(Cc1ccccc1F)NC(=O)[C@@H](NC(=O)CNC(=O)[C@H](CCC(=O)O)NC(=O)C(C)(C)NC(=O)[C@@H](N)Cc1ccc(O)cc1)[C@@H](C)O)[C@@H](C)O)[C@@H](C)CC)[C@@H](C)CC)C(=O)N[C@@H](CCCCNC(=O)COCCOCCNC(=O)CC[C@H](NC(=O)CC[C@H](NC(=O)CC[C@H](NC(=O)CCCCCCCCCCCCC(=O)O)C(=O)O)C(=O)O)C(=O)O)C(=O)NCC(=O)NCC(=O)N1CCC[C@H]1C(=O)N[C@@H](CO)C(=O)N[C@@H](CO)C(=O)NCC(=O)N[C@@H](C)C(=O)N1CCC[C@H]1C(=O)N1CCC[C@H]1C(=O)N1CCC[C@H]1C(=O)N[C@@H](CO)C(N)=O` [Example 486]: the Ki in assay [1] (setting [3]) came out at 0.299 nM; in assay [2] (setting [7]), 0.046 nM. Besides, the Emax at hGIPR (setting [4]) was 88.2%; on hGIPR (HEK293, cAMP, 37° C., 0.1% bovine casein, arithmetic mean, read-out: hGIPR Emax, % ± SEM) it was 94.1%. The EC50 on hGIPR (setting [5]) is 0.0143 nM; on hGLP-1R (setting [6]) it was 0.166 nM; at hGCGR (setting [8]), more than 9950 nM; at hGCGR (setting [9]), more than 9950 nM.

With `CCCCCCCCCCCC(=O)N[C@@H](CCC(=O)NCCOCCOCC(=O)NCCOCCOCC(=O)NCCCC[C@H](NC(=O)[C@H](CCCN)NC(=O)[C@H](CC(=O)O)NC(=O)[C@H](CC(C)C)NC(=O)[C@](C)(CC(C)C)NC(=O)[C@@H](NC(=O)C(C)(C)NC(=O)[C@H](CCCCNC(=O)COCCOCCNC(=O)COCCOCCNC(=O)CC[C@H](NC(=O)CCCCCCCCCCC)C(=O)O)NC(=O)[C@H](CC(=O)O)NC(=O)[C@H](CO)NC(=O)[C@@H](NC(=O)[C@](C)(Cc1ccccc1F)NC(=O)[C@@H](NC(=O)CNC(=O)[C@H](CCC(=O)O)NC(=O)C(C)(C)NC(=O)[C@@H](N)Cc1ccc(O)cc1)[C@@H](C)O)[C@@H](C)O)[C@@H](C)CC)C(=O)N[C@@H](C)C(=O)N[C@@H](CCC(N)=O)C(=O)NC(C)(C)C(=O)N[C@@H](CCCN)C(=O)N[C@@H](Cc1ccccc1)C(=O)N[C@H](C(=O)N[C@H](CCC(=O)O)C(=O)N[C@@](C)(Cc1ccc(O)cc1)C(=O)N[C@@H](CC(C)C)C(=O)N[C@H](C(=O)N[C@@H](CCC(=O)O)C(=O)NCC(=O)NCC(=O)N1CCC[C@H]1C(=O)N[C@@H](CO)C(=O)N[C@@H](CO)C(=O)NCC(=O)N[C@@H](C)C(=O)N1CCC[C@H]1C(=O)N1CCC[C@H]1C(=O)N1CCC[C@H]1C(=O)N[C@@H](CO)C(N)=O)[C@@H](C)CC)[C@@H](C)CC)C(=O)O` [Example 417], the Ki was 0.167 nM in assay [1] (setting [3]) and 0.0214 nM in assay [2] (setting [7]). Further, the maximum response (Emax) at hGIPR (setting [4]) came out at 96.4%; at hGLP-1R (setting [10]), 109%. Besides, the EC50 at hGIPR (setting [5]) is 0.00651 nM; at hGLP-1R (setting [6]) it was 0.0675 nM; on hGLP-1R (37° C., 0.1% bovine casein and 1.0% human serum albumin, geometric mean (SEM, n), read-out: hGLP-1R EC50, nM (SEM, n)) it was 2.66 nM; at hGCGR (setting [8]), more than 9950 nM; at hGCGR (setting [9]), more than 9950 nM.

As for `CCCCCCCCCCCC(=O)N[C@@H](CCC(=O)NCCOCCOCC(=O)NCCOCCOCC(=O)NCCCC[C@H](NC(=O)[C@H](CCCN)NC(=O)[C@H](CC(=O)O)NC(=O)[C@H](CC(C)C)NC(=O)[C@](C)(CC(C)C)NC(=O)[C@@H](NC(=O)C(C)(C)NC(=O)[C@H](CCCCNC(=O)COCCOCCNC(=O)COCCOCCNC(=O)CC[C@H](NC(=O)CCCCCCCCCCC)C(=O)O)NC(=O)[C@H](CC(=O)O)NC(=O)[C@H](CO)NC(=O)[C@@H](NC(=O)[C@](C)(Cc1ccccc1F)NC(=O)[C@@H](NC(=O)CNC(=O)[C@H](CCC(=O)O)NC(=O)C(C)(C)NC(=O)[C@@H](N)Cc1ccc(O)cc1)[C@@H](C)O)[C@@H](C)O)[C@@H](C)CC)C(=O)N[C@@H](C)C(=O)N[C@@H](CCC(N)=O)C(=O)NC(C)(C)C(=O)N[C@@H](Cc1ccncc1)C(=O)N[C@@H](Cc1ccccc1)C(=O)N[C@H](C(=O)N[C@H](CCC(=O)O)C(=O)N[C@@](C)(Cc1ccc(O)cc1)C(=O)N[C@@H](CC(C)C)C(=O)N[C@H](C(=O)N[C@@H](CCC(=O)O)C(=O)NCC(=O)NCC(=O)N1CCC[C@H]1C(=O)N[C@@H](CO)C(=O)N[C@@H](CO)C(=O)NCC(=O)N[C@@H](C)C(=O)N1CCC[C@H]1C(=O)N1CCC[C@H]1C(=O)N1CCC[C@H]1C(=O)N[C@@H](CO)C(N)=O)[C@@H](C)CC)[C@@H](C)CC)C(=O)O` [Example 415], the figures for the Ki in assay [1] (setting [3]) and in assay [2] (setting [7]) were 0.156 nM and 0.0152 nM, respectively. Further, the Emax at hGIPR (setting [4]) stood at 93.9%; at hGLP-1R (setting [10]), 109%. Moreover, the EC50 on hGIPR (setting [5]) was 0.00991 nM; at hGLP-1R (setting [6]), 0.122 nM; on hGCGR (setting [8]), more than 9950 nM; at hGCGR (setting [9]), more than 9950 nM.

Source of the values: US20230265151A1, “GIP/GLP1 CO-AGONIST COMPOUNDS” (priority 2020, published 2023).
